The values that follow come from ChEMBL document CHEMBL1127844, “Molecular structures and conformational studies of triarylcyclopropyl and related nonsteroidal antiestrogens” (J Med Chem, 1994).

The subject of the assay is MCF7. Description: Percent inhibition of estrogen receptor positive MCF-7 human breast cancer cell proliferation at 10e-7 M. In kind it is functional.
Usually inhibition stands for the share of the control response that was lost under treatment. Regarding `COc1ccc(C2C(Cl)(Cl)C2(c2ccc(OC)cc2)c2ccc(OCc3ccccc3)cc2)cc1` (configuration not stated), the inhibition at 0.1 µM came out at 35%.

On to `ClC1(Cl)C(c2ccccc2)C1c1ccccc1` (configuration not stated), for which 0.1 µM produced 60% inhibition.

`COc1ccc(C2(c3ccc(OCc4ccccc4)cc3)C(c3ccccc3)C2(Cl)Cl)cc1` (configuration not stated) yielded an inhibition at 0.1 µM of 46%.

For the compound `CC/C(=C(\c1ccccc1)c1ccc(OCCN(C)C)cc1)c1ccccc1` [TAMOXIFEN], the inhibition at 0.1 µM was 52%.

The compound `CN(C)CCOc1ccc(C2(c3ccccc3)C(c3ccccc3)C2(Cl)Cl)cc1` (configuration not stated) returned an inhibition at 0.1 µM of 41%.

For `COc1ccc(C2(c3ccc(OCCN(C)C)cc3)C(c3ccccc3)C2(Cl)Cl)cc1` (configuration not stated), at 0.1 µM the inhibition was 35%.

`COc1ccc(C2(c3ccccc3)C(c3ccccc3)C2(Cl)Cl)cc1` (configuration not stated) showed an inhibition at 0.1 µM of 35%.
